One data set is described as follows: DPPH radical assay. As to conditions: read-out: DPPH IC50 at 120 min; Example 15. Background: The DPPH test is a chemical assay of radical scavenging.
In a further data set the test system is Human LDL. The data set can be described thus: Protection of LDL from AAPH oxidation (agarose gel electrophoresis). Type of data set: biochemical. As to conditions: 20 mM AAPH, 21 h, 37° C.
In data set [1] the test system is Chinese hamster ovary (CHO-K1) cells. The data set can be described thus: Cell toxicity, MTT. The settings on record: 3.1-50 μM, over 5 days. Type of data set: cell-based. The procedure: Data on cell toxicity of compound 4 and compound 5 were obtained with Chinese hamster ovary (CHO) cells using 3-(4,5-di-methylthizol-2-yl)-2,5 diphenyltetrazolium bromide (MTT). Chinese Hamster Ovary (CHO-K1) cells were cultured in F-12K medium supplemented with 10% fetal bovine serum. The cells (3×10^5/ml) were seeded in 100 μL volumes in 96 well culture plates and incubated with the solvent control (DMSO, 0.3%), compound 4 or compound 5 at 3.1, 6.2, 12.5, 25, or 50 μM for 1, 3, or 5 days. Two hours prior to experimental termination, 20 μL of a 5 mg/mL MTT solution in 0.01 M PBS was added to each well. Plates were centrifuged at 450×g for 10 min and supernatant was removed. The resultant formazan crystals were dissolved in 100 μL DMSO and mixed. Absorbance was measured using a Biolog microplate reader (Biotek Instruments) at dual wavelengths, 590 and 650 nm. Percent control response was calculated as follows: (absorbance of treatment/absorbance of control)×100. All experiments were performed in triplicate and repeated. The data were analyzed using Systat 12 for windows. Multiple groups were compared using a one-way analysis of variance (ANOVA) and a Tukey test for mean separation. A p value<0.05 was considered statistically significant.

For another data set, the system named is plasmid DNA pBR 322. The data set can be described thus: Protection of plasmid DNA from AAPH damage (agarose electrophoresis). Type of data set: biochemical. As to conditions: 5 μM antioxidant, 10 mM AAPH, 37° C., 4 h.

The structures appear in SMILES notation.

The IC50 is the midpoint of a concentration-inhibition curve.

`COc1cc(CN(CCN(CCN(Cc2ccc(O)c(OC)c2)Cc2ccc(O)c(OC)c2)CCN(Cc2ccc(O)c(OC)c2)Cc2ccc(O)c(OC)c2)Cc2ccc(O)c(OC)c2)ccc1O` [Compound 5]: in the data set “DPPH radical assay”, the half-inhibitory concentration (IC50) is 2 µM. In addition, the “only concentration effective in protecting LDL” value in the data set on Human LDL was determined as 30 µM. The “CHO cell viability (MTT)” value in data set [1] is listed as “did not show any reduction in cell viability”. For the same compound, in the data set on plasmid DNA pBR 322, the DNA protection result is on record as “Some protection”.

These data come from US8895032B2, “Dendritic nano-antioxidants” (Central Michigan University, priority 2009, dated 2014).
